Experimental data from patent publication US20050107289A1, “Anti-microbial peptides and compositions” (priority 2001, published 2005).
Where a name gives a salt, the structure may show the parent alone. Read-outs that look alike come from different tables or passages of the source. Non-standard residues stand in square brackets, D forms with d. Residues, ends and D or L forms follow the SMILES beside them.

Assays:
E. faecalis ATCC 51299 = experiment: microbe, parasite or virus in culture; assay type: cell-based, Enterococcus faecalis; conditions: ATCC 51299
Method: (§1) The antimicrobial activity of the peptides was determined using a broth dilution assay essentially as descried in the guidelines of the National Committee for […] (NCCLS) [National Committee for Clinical Laboratory Standards. Methods for dilution antimicrobial susceptibility tests for bacteria that grow aerobically. Fourth edition. Approved Standard (1997). Document M7-A4. […] The microdilution method has the advantages of requiring less amount of peptide for each assay and the possibility of multiple simultaneous inoculations and was used in most studies. Several of the strains of bacteria tested are further described in Table 3.
(§2) Preparation of peptide solutions. Stock peptide solutions were prepared in 5% DMSO in aq. sucrose (9%). Determination of peptide concentrations was done by quantitative HPLC analysis using known concentrations of internal standards and/or by measuring UV absorption of tryptophane-containing peptide solutions in H2O (λ=280 εTrp: 5690). Serial 2-fold dilutions were made in the above DMSO/aq. sucrose (9%) mixture with concentrations ranging approximately 400-2 μg/ml and aliquots were dispensed in test tubes (100 μl) for the macrodilution test or in microtiter plates (20 μl) for the microdilution assays.
(§3) Inoculum preparation. Overnight cultures of different microorganisms grown in suitable media were diluted 4000 times to an approximate inoculum size of 2.5×10^5 cfu/ml.
(§4) Macrodilution method. Macrodilution methods were performed using procedures similar to those described in the National Committee for Clinical Laboratory Standards. Methods for dilution antimicrobial susceptibility tests for bacteria that grow aerobically. Fourth edition. Approved Standard (1997). Document M7-A4. (NCCLS,Villanova, Pa., 1997). Two ml aliquots of the above inoculum were dispensed to test tubes containing different peptide solutions.
(§5) Microdilution method. Microdilution methods were performed using procedures similar to those described in the National Committee for Clinical Laboratory Standards. Methods for dilution antimicrobial susceptibility tests for bacteria that grow aerobically. Fourth edition. Approved Standard (1997). Document M7-A4.

H. influenzae ATCC 49247 = experiment: microbe, parasite or virus in culture; assay type: cell-based, Hemophilus influenzae; conditions: ATCC 49247
Method: as §1, §2, §3, §4, §5

S. aureus ATCC 33592 = experiment: microbe, parasite or virus in culture; assay type: cell-based, Staphylococcus aureus; conditions: ATCC 33592
Method: as §1, §2, §3, §4, §5

E. faecium SP180 = experiment: microbe, parasite or virus in culture; assay type: cell-based, Enterococcus faecium; conditions: SP180
Method: as §1, §2, §3, §4, §5

[1] = test system: vancomycin-resistant Enterococus faecalis (VRE)(ATCC 51575); assay type: cell-based, Enterococcus faecalis; design: key to VRE (in vitro activity): peptide concentration in μg/ml (broth dilution assay); conditions: for VRE (in vitro activity): Table 9; for VRE MIC: ATCC 51575
Procedure, shortened: (§6)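 MIC read from NCCLS-style broth dilution. Peptide concentrations were set by quantitative HPLC or Trp UV absorbance at 280 nm, then serially halved from about 400 to 2 μg/ml in 5% DMSO/9% sucrose. Inoculum: approximately 2.5×10^5 cfu/ml.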

[2] = test system: S. aureus (MRSA) ATCC 33591; assay type: cell-based, Staphylococcus aureus; conditions: for MRSA (in vitro activity): Table 9; for MRSA MIC / S. aureus (MRSA) MIC: ATCC 33591
Procedure, shortened: as §6

murine red blood cells = experiment: Red blood cell hemolysis; assay type: cell-based, mouse; conditions: for Hemolysis HD50: red cells of murine
Procedure, shortened: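 Hemolysis read as A560 of supernatant, scaled between saline (0%) and 1% Triton X-100 (100%) controls; peptides were serially diluted onto 5% murine red cells in saline plus 10% FBS and incubated 30 min at 37° C.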

[3] = test system: Bacillus cereus ATCC 11778; assay type: cell-based
Method: as §1, §2, §3, §4, §5

[4] = test system: Streptococcus pneumoniae (ATCC 6301); assay type: cell-based
Method: as §1, §2, §3, §4, §5

E. coli JM109(DE3) = assay type: cell-based, Escherichia coli; conditions: JM109
Method: as §1, §2, §3, §4, §5

[5] = test system: vancomycin resistant E. faecium (VREF)(ATCC 51575); experiment: Mouse peritonitis model, VREF protection; assay type: in vivo, mice; design: PD50 VREF: unit not given here
Method: Vancomycin resistant Enterococcus faecium (VREF) bacteria (ATCC 51575) were grown at 37° C. in 60 mL of Brain Heart Infusion medium (BHI, Difco Laboratories) with agitation for 16 hours to a stationary phase. Cells were collected by centrifugation, washed twice with saline solution and resuspended in 6 mL of saline to a theoretical O.D.650 of 9-10 (determined by taking OD.650 of 10-20 fold diluted samples and correlating it to the original concentration). This suspension was diluted 15 times in a sterilized 5% mucin (Difco) in saline to a concentration of 5-7×10^8 cfu/ml (actual inoculum size was verified by colony counts on agar plates).
(§7) Peptides of the invention were tested in mice to ascertain whether they would protect the mice against bacterial infection using procedures similar to those described in N. Frimodt-Moller et al., The Mouse Peritonitis/Sepsis Model, in Zak et al. (eds.) HANDBOOK OF ANIMAL MODELS OF INFECTION 127-37 (Academic Press 1999).
(§8) Male Balb-C mice (6 weeks old, approximately 20 g) were used in the study. Staphylococcus aureus MRSA bacteria (ATCC 33591) were grown at 37° C. with agitation for 12 hours to a stationary phase. Cells were collected by centrifugation, washed twice with saline and resuspended to an O.D.650 of 1.4. This suspension was diluted ten times with saline and resuspended to a concentration of 3-5×10^7 cfu/ml. For each peptide five groups of eight mice per group were infected I.P. with 0.5 ml of the above Staphylococcus aureus MRSA preparation (lethal dose). Forty-five minutes to an hour after infection, each group was treated with a different dose of peptide and a control group received vehicle only. Mice were monitored for fourteen days; death was defined as the end point. Median protecting doses (PD50) were calculated following the Reed and Muench method. […] For IV and SQ models peptide was administered immediately after IP infection.

[6] = test system: S. aureus MRSA (ATCC 33591); experiment: Mouse peritonitis model, MRSA protection; assay type: in vivo, mice; design: PD50 MRSA: unit not given here
Method: Bacteria were prepared for in vivo using procedures similar to those as previously described. […] S. aureus MRSA bacteria (ATCC 33591) were grown at 37° C. in 5 mL of Antibiotic Medium-3 (AM-3, Difco Laboratories) with agitation for 12 hours to a stationary phase. Cells were collected by centrifugation, washed twice with saline solution and resuspended in about 10 mL of saline to an O.D.650 of 1.2. This suspension was diluted ten times in a sterilized 5% mucin (Difco) in saline to a concentration of 2-4×10^7 cfu/ml (actual inoculum size was verified by colony counts on agar plates).
as §7, §8

[7] = media a: anti-microbial media-3 (AM-3)
[8] = Table 12, male Balb-C mice, IP infection, IP peptide
[9] = single bolus IP dose of appropriate amount, 45-60 min after infection

SMILES | RBC Hemolysis (HD50) (murine red blood cells) | B. cerius MIC [3] | S. pneum. MIC [4] | E. coli MIC (E. coli JM109(DE3)) | VRE MIC [1] | MRSA MIC [2] | VRE (in vitro activity) ([1]; media a: AM-3) | S. aureus (MRSA) MIC [2] | MRSA (in vitro activity) [2, 7] | also measured
CC(C)C[C@H]1NC(=O)[C@H](Cc2c[nH]c3ccccc23)NC(=O)[C@@H](CCCCN)NC(=O)[C@H](CO)NC(=O)[C@@H](CCCCN)NC(=O)[C@H](Cc2c[nH]c3ccccc23)NC(=O)[C@@H](CC(C)C)NC(=O)[C@H](Cc2c[nH]c3ccccc23)NC1=O [[KSKWLWLW]-HCl, D-Lys-Ser-D-Lys-Trp-D-Leu-Trp-D-Leu-Trp] (cyclo([dK]S[dK]W[dL]W[dL]W)) | 60 |  |  |  |  |  |  |  |  | E. faecalis ATCC 51299 MIC (E. faecalis ATCC 51299): 8 µg/mL; H. influenzae ATCC 49247 MIC (H. influenzae ATCC 49247): 32 µg/mL; S. aureus ATCC 33592 MIC (S. aureus ATCC 33592): 4 µg/mL; E. faecium SP180 MIC (E. faecium SP180): 4 µg/mL; VRE (in vitro activity) ([1]; media c: Brain Heart Infusion (BHI)): 9; MRSA (in vitro activity) ([2]; media b: cation adjusted Meuller Hinton broth (MHBII)): 9
CC(=O)N[C@H](CCCNC(=N)N)C(=O)N[C@@H](CCCNC(=N)N)C(=O)N[C@H](CCCCN)C(=O)N[C@@H](Cc1c[nH]c2ccccc12)C(=O)N[C@H](CC(C)C)C(=O)N[C@@H](Cc1c[nH]c2ccccc12)C(=O)N[C@H](CC(C)C)C(=O)N[C@@H](Cc1c[nH]c2ccccc12)C(N)=O [SEQ ID NO:136, Ac-RRKWLWLW-NH2] (Ac-[dR]R[dK]W[dL]W[dL]W-NH2) |  | 22 µg/mL | 40 µg/mL | 6 µg/mL | 100 µg/mL | 70 µg/mL |  |  |  | Hemolysis HD50 (murine red blood cells): 100 µg/mL
CC(C)C[C@H]1NC(=O)[C@H](Cc2c[nH]c3ccccc23)NC(=O)[C@@H](CO)NC(=O)[C@H](Cc2c[nH]cn2)NC(=O)[C@@H]([C@H](C)O)NC(=O)[C@H](Cc2c[nH]c3ccccc23)NC(=O)[C@@H](CC(C)C)NC(=O)[C@H](Cc2c[nH]c3ccccc23)NC1=O [SEQ ID NO:6, cyclo-(D-Thr-His-D-Ser-Trp-D-Leu-Trp-D-Leu-Trp)] (cyclo(H[dS]W[dL]W[dL]W[dT])) | 100 | > 280 µg/mL | 100 µg/mL | 100 µg/mL | 100 µg/mL | 100 µg/mL | 100 | 100 µg/mL | 100 | 
CC(C)C[C@H]1NC(=O)[C@H](Cc2c[nH]c3ccccc23)NC(=O)[C@@H](CCCCN)NC(=O)[C@H](CCCCN)NC(=O)[C@@H](CCCCN)NC(=O)[C@H](Cc2c[nH]c3ccccc23)NC(=O)[C@@H](CC(C)C)NC(=O)[C@H](Cc2c[nH]c3ccccc23)NC1=O [SEQ ID NO:17, cyclo[-(D-Lys-Lys-D-Lys-(Trp-D-Leu)2-Trp-]] (cyclo([dK]K[dK]W[dL]W[dL]W)) | 45 | 5 µg/mL | 10 µg/mL |  | 40 µg/mL | 10 µg/mL | 40 | 8 µg/mL | 10 | PD50 E. faecium VREF infection [5]: 13 mg/kg; PD50 VREF [5, 8]: 13; protection of mice from VREF infection [5, 9]: completely protect; PD50 S. aureus MRSA infection [6]: 7 mg/kg; PD50 protective dose where 50% of animals survive ([6]; FIG. 6, mice challenged with lethal doses of MRSA): 6 ± 2 mg/kg; PD50 MRSA [6, 8]: 7; protection of mice from MRSA infection [6, 9]: completely protect
CC(C)C[C@H]1NC(=O)[C@H](Cc2c[nH]c3ccccc23)NC(=O)[C@@H](Cc2c[nH]cn2)NC(=O)[C@H](CCCCN)NC(=O)[C@@H](Cc2c[nH]cn2)NC(=O)[C@H](Cc2c[nH]c3ccccc23)NC(=O)[C@@H](CC(C)C)NC(=O)[C@H](Cc2c[nH]c3ccccc23)NC1=O [SEQ ID NO:21, cyclo-(D-His-Lys-D-His-Trp-D-Leu-Trp-D-Leu-Trp)] (cyclo(K[dH]W[dL]W[dL]W[dH])) | 25 | 4 µg/mL | 19 µg/mL | 15 µg/mL | 16 µg/mL | 12 µg/mL | 16 | 12 µg/mL | 12 | 
CC(C)C[C@@H](NC(=O)[C@H](Cc1c[nH]c2ccccc12)NC(=O)[C@@H](CC(C)C)NC(=O)[C@H](Cc1c[nH]c2ccccc12)NC(=O)[C@@H](CCCCN)NC(=O)[C@H](CCCNC(=N)N)NC(=O)[C@H](N)CCCNC(=N)N)C(=O)N[C@@H](Cc1c[nH]c2ccccc12)C(N)=O [SEQ ID NO:135, H-RRKWLWLW-NH2] (H-[dR]R[dK]W[dL]W[dL]W-NH2) |  | 19 µg/mL | 40 µg/mL | 4 µg/mL | 100 µg/mL | 20 µg/mL |  |  |  | Hemolysis HD50 (murine red blood cells): 100 µg/mL
CC(C)C[C@H]1NC(=O)[C@H](Cc2c[nH]c3ccccc23)NC(=O)[C@@H](CC(C)C)NC(=O)[C@H](Cc2c[nH]c3ccccc23)NC(=O)[C@@H](CC(=O)O)NC(=O)CNC(=O)[C@@H](CCCNC(=N)N)NC(=O)[C@H](Cc2c[nH]c3ccccc23)NC1=O [SEQ ID NO:7, RGDWLWLW] (cyclo([dR]G[dD]W[dL]W[dL]W)) | 100 | > 280 µg/mL | 70 µg/mL | 100 µg/mL | 100 µg/mL | 100 µg/mL | 100 | 100 µg/mL | 100 | 
